One assay concerns the target T1, 6His-3FLAG-Cdc14 (Saccharomyces cerevisiae, UniProt Q00684).
T1 sequence (Q00684 1-551): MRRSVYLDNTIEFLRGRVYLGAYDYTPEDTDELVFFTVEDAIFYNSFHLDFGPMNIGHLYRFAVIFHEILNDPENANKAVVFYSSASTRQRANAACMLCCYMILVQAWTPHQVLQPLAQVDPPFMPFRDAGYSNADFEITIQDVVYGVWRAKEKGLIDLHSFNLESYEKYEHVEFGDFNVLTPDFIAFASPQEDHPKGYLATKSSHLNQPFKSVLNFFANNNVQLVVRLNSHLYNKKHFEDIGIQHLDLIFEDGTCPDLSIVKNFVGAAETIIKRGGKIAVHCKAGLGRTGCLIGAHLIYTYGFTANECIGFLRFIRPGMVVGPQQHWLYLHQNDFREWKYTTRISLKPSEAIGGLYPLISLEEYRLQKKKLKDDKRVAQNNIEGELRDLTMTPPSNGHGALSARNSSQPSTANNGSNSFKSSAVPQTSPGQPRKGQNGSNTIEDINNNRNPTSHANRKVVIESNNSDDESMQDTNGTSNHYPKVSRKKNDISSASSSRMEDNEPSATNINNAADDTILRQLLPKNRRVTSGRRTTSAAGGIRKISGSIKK
Briefly: colorimetric p-nitrophenolate release, absorbance at […] nm. The assay is classed as biochemical. The note with it: 10 mM pNPP, 20 mM Tris pH 7.5, 4 mM MgCl2, 1 mM EGTA, room temperature.

In another assay the target is T2, 3HA-Atg13-p PxL2m (S. cerevisiae, UniProt Q06628 1-738, PxL2m (A207-IG), phosphorylated (Atg13-p); residues not stated).
T2 sequence (looked up): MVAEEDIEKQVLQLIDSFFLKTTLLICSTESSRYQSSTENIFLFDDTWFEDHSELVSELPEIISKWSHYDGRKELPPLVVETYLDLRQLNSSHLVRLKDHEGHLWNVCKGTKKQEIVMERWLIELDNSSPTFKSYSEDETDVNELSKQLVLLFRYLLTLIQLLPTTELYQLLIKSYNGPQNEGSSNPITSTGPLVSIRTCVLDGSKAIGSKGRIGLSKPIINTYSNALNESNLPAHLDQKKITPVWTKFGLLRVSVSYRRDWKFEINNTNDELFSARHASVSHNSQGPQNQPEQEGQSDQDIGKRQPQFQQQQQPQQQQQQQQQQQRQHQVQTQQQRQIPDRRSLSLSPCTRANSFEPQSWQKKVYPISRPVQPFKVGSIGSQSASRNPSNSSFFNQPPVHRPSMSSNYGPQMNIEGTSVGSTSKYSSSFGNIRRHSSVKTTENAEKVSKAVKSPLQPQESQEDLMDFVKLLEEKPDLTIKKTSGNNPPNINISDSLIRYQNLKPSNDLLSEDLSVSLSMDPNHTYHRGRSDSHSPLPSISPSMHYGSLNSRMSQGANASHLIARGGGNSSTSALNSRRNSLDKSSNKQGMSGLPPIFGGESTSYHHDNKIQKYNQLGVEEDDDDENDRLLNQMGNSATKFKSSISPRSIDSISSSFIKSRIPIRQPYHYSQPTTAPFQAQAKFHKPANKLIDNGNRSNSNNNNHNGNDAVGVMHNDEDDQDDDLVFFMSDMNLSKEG
Briefly: pull-down.

Consider `O=[N+]([O-])c1ccc(OP(=O)(O)O)cc1` [p-nitrophenyl phosphate], for which, at 6His-3FLAG-Cdc14, the “colorimetric p-nitrophenolate release, absorbance at 405 nm” value is 6His-3FLAG-Cdc14 exhibited concentration- and time-dependent phosphatase activity.

B1: 6His-3FLAG-Cdc14-C283S (enzyme, S. cerevisiae, UniProt Q00684 1-551, looked up)
chain: MRRSVYLDNTIEFLRGRVYLGAYDYTPEDTDELVFFTVEDAIFYNSFHLDFGPMNIGHLYRFAVIFHEILNDPENANKAVVFYSSASTRQRANAACMLCCYMILVQAWTPHQVLQPLAQVDPPFMPFRDAGYSNADFEITIQDVVYGVWRAKEKGLIDLHSFNLESYEKYEHVEFGDFNVLTPDFIAFASPQEDHPKGYLATKSSHLNQPFKSVLNFFANNNVQLVVRLNSHLYNKKHFEDIGIQHLDLIFEDGTCPDLSIVKNFVGAAETIIKRGGKIAVHSKAGLGRTGCLIGAHLIYTYGFTANECIGFLRFIRPGMVVGPQQHWLYLHQNDFREWKYTTRISLKPSEAIGGLYPLISLEEYRLQKKKLKDDKRVAQNNIEGELRDLTMTPPSNGHGALSARNSSQPSTANNGSNSFKSSAVPQTSPGQPRKGQNGSNTIEDINNNRNPTSHANRKVVIESNNSDDESMQDTNGTSNHYPKVSRKKNDISSASSSRMEDNEPSATNINNAADDTILRQLLPKNRRVTSGRRTTSAAGGIRKISGSIKK
On to B1, for which the binding result with 3HA-Atg13-p PxL2m is on record as “binds”.

The values above are taken from paper PMC8919667 (The Journal of Cell Biology, 2022).
